This passage reports IC50 results from ChEMBL document CHEMBL1139693, “Structure-based design of a novel thiazolone scaffold as HCV NS5B polymerase allosteric inhibitors” (Bioorg Med Chem Lett, 2006).

A short description of the assay: Inhibition of HCV NS5B polymerase. More on the design: species or system Hepacivirus hominis.

In general, IC50 refers to the concentration that gives 50% inhibition. Low readings indicate greater potency, high ones weaker potency. Consider `Cc1ccc(S(=O)(=O)NC2=NC(=O)/C(=C/c3ccc(C)o3)S2)cc1`, for which the IC50 is 2000 nM. That is a single-digit micromolar value.
